One molecule from US20170096426A1 (published 2017) can be followed below.

On to `CCCCCn1c2ccccc2c2cc(C(=O)c3ccccc3)ccc21`, for which the melting point fell in the range of 116 to 117 °C.
